Like-named read-outs stand apart in the source and are kept apart here.
Columns and labels:
HiBiT tagged CK1α = HiBiT tagged CK1α (Homo sapiens, UniProt P48729+Q96SW2); assay: CK1α degradation assay (HiBiT assay); type: cell-based; settings: 20 hours; for Dmax: HT-1080, HT-1080 cells; for Dmax / HiBiT CK1α: Dmax: maximum CK1α degradation; for DC50 / HiBiT CK1α: Dmax: HT-1080 cells; for DC50: concentration at 50% CK1α degradation
Summary of the method: (§1)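 HT-1080 cells stably expressing wild-type CRBN, GSPT1A(1-138)/G575N and HiBiT-tagged CK1α or GSPT1, ~10,000/well, treated with compound from 3.162×10^-4 μM to 10 μM (3.16-fold steps). HiBiT luminescence normalized to DMSO as percent of control.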

HiBiT tagged GSPT1 = HiBiT tagged GSPT1 (Homo sapiens, UniProt P15170+Q96SW2); assay: GSPT1 degradation assay (HiBiT assay); type: cell-based; settings: 20 hours, maximum GSPT1 degradation; for Dmax: HT-1080, HT-1080 cells; for HiBiT GSPT1: Dmax: HT-1080 cells
Summary of the method: as §1

MV4-11 cells = assay: MV4-11 cell proliferation assay (CTG cell viability); type: cell-based; settings: 120 hours, read-out: CTG cell viability assay_MV4-11: IC50
Procedure: MV4-11 Cell Proliferation Assay
The following is an example of an assay that can be used to determine the dose-dependent, anti-proliferative activity of CK1α degradating compounds in an AML cell line such as MV4-11 (ATCC Cat #CRL-9591).
MV4-11 cells were seeded into a 384-well plate (Cat #3764, Corning) pre-spotted with DMSO or test compounds. Increasing concentrations of test compounds (ranging from 1×10^−3 μM to 10 μM at a 3.162-fold increment in a 10-point dose response assay; ranging from 3.162×10^−4 μM to 10 μM at a 3.162-fold increment in a 11-point dose response assay) or DMSO were dispensed into an empty 384-well plate using an a D300e digital dispenser (Tecan) or an Echo Acoustic Liquid Handler (Beckman Coulter). About 2,000 cells in 50 μL of culture media (IMDM plus 10% heat-inactivated FBS) were seeded per well. Assay plates were incubated at 37° C. with 5% CO2 for 120 hours. After that, 20 μL of the CellTiter-Glo Luminescent Cell Viability Assay Reagent (Cat #G7573, Promega) was added to each well and incubated at room temperature for 30 minutes. Luminescence was then measured with an EnVision plate reader (PerkinElmer) or a PHERAstar plate reader (BMG LABTECH). All cell growth inhibition curves were processed using Collaborative Drug Discovery Vault softwares (Burlingame, CA, www.collaborativedrug.com).
Cell viability reads in compound-treated wells were normalized to that of DMSO control and expressed as Percent of Control (PoC, y). A four Parameter Logistic Model was used to determine the compound's EC50 and DC50, using the following equation:
[formula] • A==lowest cell viability read normalized to DMSO control in response to compound treatment, as determined by curve fit • B=cell viability read in DMSO control • C=EC50 • D=Hill Slope • x=compound concentration • EC50=the concentration of compound when y=(B−A)/2 • IC50=the concentration of the compound when y=50% of DMSO control • y=cell viability read normalized to DMSO control Ymin=(A/B)*100% • Ymin represents the lowest cell viability % that can be achieved by the compound treatment in the assay.

[1] = Pharmacokinetic study of single intravenous and oral administration in mouse; type: in vivo; settings: for C0 / clearance / half-life / Vd / AUC(0-inf) / Cmax / Tmax: plasma; for Vd: read-out: Vss
Procedure: The pharmacokinetic study of single intravenous and oral administration in mouse Sample collection and preparation: After intravenous injection or oral administration of test compounds, blood samples were collected and the blood collection time was recorded. After the blood sample was collected, it was immediately transferred into a labeled centrifuge tube containing K2-EDTA, followed by centrifugation and plasma collection. The plasma was then transferred into a pre-cooled centrifuge tube, quickly frozen on dry ice, and stored in an ultra-low temperature refrigerator at −70±10° C. until the LC-MS/MS analysis was performed.
Pharmacokinetic data analysis: The pharmacokinetic software was used to process the plasma drug concentration data of the compound in a non-compartmental model. The peak concentration (Cmax), peak time (Tmax) and quantifiable end time can be directly obtained from the plasma concentration-time diagram. The log-linear trapezoidal method was used to calculate the following pharmacokinetic parameters: half-life (T1/2), apparent volume of distribution (Vdss) and clearance (Cl), and the area under the time-plasma concentration curve (AUC0-inf) from the 0 point to the end point.

HiBiT tagged GSPT1, sequence (P15170 whole entry): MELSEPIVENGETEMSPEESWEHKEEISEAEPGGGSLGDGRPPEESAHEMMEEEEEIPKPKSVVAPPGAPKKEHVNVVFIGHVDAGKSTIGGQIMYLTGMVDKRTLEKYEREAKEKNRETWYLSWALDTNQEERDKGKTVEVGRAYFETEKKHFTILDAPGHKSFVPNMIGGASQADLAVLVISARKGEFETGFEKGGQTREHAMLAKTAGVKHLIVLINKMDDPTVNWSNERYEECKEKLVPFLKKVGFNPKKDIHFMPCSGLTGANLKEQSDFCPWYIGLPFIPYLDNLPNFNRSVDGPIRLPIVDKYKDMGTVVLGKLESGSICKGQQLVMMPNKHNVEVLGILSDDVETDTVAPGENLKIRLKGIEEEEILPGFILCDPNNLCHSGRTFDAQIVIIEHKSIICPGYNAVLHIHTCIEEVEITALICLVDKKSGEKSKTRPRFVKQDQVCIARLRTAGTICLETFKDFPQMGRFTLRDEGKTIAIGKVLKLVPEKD
HiBiT tagged GSPT1, sequence (Q96SW2 whole entry): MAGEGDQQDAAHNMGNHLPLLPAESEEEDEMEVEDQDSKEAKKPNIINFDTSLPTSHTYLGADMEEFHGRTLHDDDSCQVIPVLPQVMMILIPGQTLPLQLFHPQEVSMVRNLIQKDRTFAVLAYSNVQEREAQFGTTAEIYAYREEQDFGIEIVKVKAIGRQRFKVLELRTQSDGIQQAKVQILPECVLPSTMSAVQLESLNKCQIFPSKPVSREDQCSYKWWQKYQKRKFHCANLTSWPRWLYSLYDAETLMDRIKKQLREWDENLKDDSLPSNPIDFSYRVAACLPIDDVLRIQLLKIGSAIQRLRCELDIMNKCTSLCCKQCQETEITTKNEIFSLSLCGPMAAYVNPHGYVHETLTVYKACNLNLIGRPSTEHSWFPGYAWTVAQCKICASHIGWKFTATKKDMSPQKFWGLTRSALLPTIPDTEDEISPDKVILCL
HiBiT tagged GSPT1, sequence (Q16531 whole entry partner): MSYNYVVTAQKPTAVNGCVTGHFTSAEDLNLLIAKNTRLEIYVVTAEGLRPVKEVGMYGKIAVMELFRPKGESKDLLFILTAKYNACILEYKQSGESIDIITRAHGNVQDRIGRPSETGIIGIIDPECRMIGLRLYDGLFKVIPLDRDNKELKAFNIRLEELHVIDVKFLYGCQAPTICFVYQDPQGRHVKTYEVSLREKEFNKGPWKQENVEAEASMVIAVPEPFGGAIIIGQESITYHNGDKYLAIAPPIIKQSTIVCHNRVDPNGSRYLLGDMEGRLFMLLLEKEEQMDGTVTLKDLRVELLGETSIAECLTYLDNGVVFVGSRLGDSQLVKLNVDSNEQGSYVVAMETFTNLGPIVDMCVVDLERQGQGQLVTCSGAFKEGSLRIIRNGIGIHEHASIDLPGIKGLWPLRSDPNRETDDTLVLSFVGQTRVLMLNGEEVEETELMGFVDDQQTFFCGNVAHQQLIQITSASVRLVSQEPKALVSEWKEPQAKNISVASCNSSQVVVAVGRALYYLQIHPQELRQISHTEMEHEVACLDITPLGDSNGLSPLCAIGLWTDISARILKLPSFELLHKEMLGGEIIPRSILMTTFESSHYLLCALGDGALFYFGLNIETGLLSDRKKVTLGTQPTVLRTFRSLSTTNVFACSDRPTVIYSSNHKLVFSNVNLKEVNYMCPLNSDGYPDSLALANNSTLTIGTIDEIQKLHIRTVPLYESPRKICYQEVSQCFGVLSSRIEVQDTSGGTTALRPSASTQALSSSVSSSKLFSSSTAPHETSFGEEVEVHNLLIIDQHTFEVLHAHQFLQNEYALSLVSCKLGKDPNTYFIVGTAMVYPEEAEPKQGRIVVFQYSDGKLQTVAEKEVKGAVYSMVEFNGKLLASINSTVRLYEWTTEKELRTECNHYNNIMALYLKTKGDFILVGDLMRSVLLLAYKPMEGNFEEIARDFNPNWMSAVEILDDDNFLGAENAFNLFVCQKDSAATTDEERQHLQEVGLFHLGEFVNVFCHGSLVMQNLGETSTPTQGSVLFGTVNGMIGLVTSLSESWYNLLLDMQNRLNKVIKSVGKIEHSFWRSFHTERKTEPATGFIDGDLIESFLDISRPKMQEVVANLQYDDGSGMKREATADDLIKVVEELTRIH
HiBiT tagged CK1α, sequence (P48729 whole entry): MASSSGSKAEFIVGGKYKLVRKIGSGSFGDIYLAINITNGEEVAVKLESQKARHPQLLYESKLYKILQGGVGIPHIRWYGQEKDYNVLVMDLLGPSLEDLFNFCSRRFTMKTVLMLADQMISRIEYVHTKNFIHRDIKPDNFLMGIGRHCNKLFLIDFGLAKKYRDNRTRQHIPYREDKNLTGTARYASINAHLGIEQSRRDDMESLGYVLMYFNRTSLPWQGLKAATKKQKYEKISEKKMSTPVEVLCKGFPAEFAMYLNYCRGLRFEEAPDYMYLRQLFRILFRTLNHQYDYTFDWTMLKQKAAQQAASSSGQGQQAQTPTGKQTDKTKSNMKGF
HiBiT tagged CK1α, sequence (Q96SW2 whole entry): as the sequence (Q96SW2 whole entry) above
HiBiT tagged CK1α, sequence (Q16531 whole entry partner): as the sequence (Q16531 whole entry partner) above

Row | SMILES | Dmax (HiBiT tagged CK1α) | DC50 (HiBiT tagged CK1α) | Dmax (HiBiT tagged GSPT1) | IC50 (MV4-11 cells; Homo sapiens) | also measured
1 | O=C1CCC(N2Cc3cc(C(=O)N[C@H](c4ncc(Cl)cc4Cl)C4CCC4)ccc3C2=O)C(=O)N1 (stereo in doubt) [Compound 79, N-((*S)-cyclobutyl(3,5-dichloropyridin-2-yl)methyl)-2-(2,6-dioxopiperidin-3-yl)-1-oxoisoindoline-5-carboxamide] | 65.9% | 274 nM | 20.4% | 176 nM | 
2 | O=C1CCC(N2Cc3cc(C(=O)N[C@H](c4ncccc4Cl)C4(F)CCC4)ccc3C2=O)C(=O)N1 (stereo in doubt) [Compound 87, N-[(*R)-(3-chloro-2-pyridyl)-(1-fluorocyclobutyl)methyl]-2-(2,6-dioxo-3-piperidyl)-1-oxo-isoindoline-5-carboxamide] | 59.8% | 279 nM | 25% | 133 nM | 
3 | O=C1CC[C@H](N2Cc3cc(C(=O)N[C@H](c4ccc(Cl)cn4)C4CCC4)ccc3C2=O)C(=O)N1 (single isomer, unassigned) [Compound 82] | 66.3% |  | 16.2% | 60 nM | C0 ([1]; 2 mg/kg, IV): 6800 ng/mL; clearance ([1]; 2 mg/kg, IV): 10.5 mL/min/kg; half-life ([1]; 2 mg/kg, IV): 80.4 min; Vd ([1]; 2 mg/kg, IV): 0.85 L/kg; AUC(0-inf) ([1]; 10 mg/kg, PO): 13300 ng·h/mL; Cmax ([1]; 10 mg/kg, PO): 6080 ng/mL; Tmax ([1]; 10 mg/kg, PO): 40.2 min; half-life ([1]; 10 mg/kg, PO): 122 min
4 | O=C1CCC(N2Cc3cc(C(=O)N[C@H](c4ccc(F)cn4)C4(F)CCC4)ccc3C2=O)C(=O)N1 (stereo in doubt) [Compound 86, 2-(2,6-dioxopiperidin-3-yl)-N-((*R)-(1-fluorocyclobutyl)(5-fluoropyridin-2-yl)methyl)-1-oxoisoindoline-5-carboxamide] | 63% | 193 nM | 18.2% | 142 nM | F ([1]; 10 mg/kg, PO): 70.4%; C0 ([1]; 2 mg/kg, IV): 4910 ng/mL; clearance ([1]; 2 mg/kg, IV): 7.85 mL/min/kg; half-life ([1]; 2 mg/kg, IV): 217 min; Vd ([1]; 2 mg/kg, IV): 0.87 L/kg; AUC(0-inf) ([1]; 10 mg/kg, PO): 14900 ng·h/mL; Cmax ([1]; 10 mg/kg, PO): 5690 ng/mL; Tmax ([1]; 10 mg/kg, PO): 30 min; half-life ([1]; 10 mg/kg, PO): 127 min
5 | O=C1CC[C@H](N2Cc3cc(C(=O)N[C@H](c4ccc(F)cc4)C4CCC4)ccc3C2=O)C(=O)N1 (single isomer, unassigned) [Compound 9, N—((*S)-cyclobutyl(4-fluorophenyl)methyl)-2-((S)-2,6-dioxopiperidin-3-yl)-1-oxoisoindoline-5-carboxamide] | 71.6% | 116 nM | 22.6% | 172 nM | 
6 | O=C1CCC(N2Cc3cc(C(=O)N[C@@H](c4ccc(F)cc4)C4CC(F)(F)C4)ccc3C2=O)C(=O)N1 (single isomer, unassigned) [Compound 5] | 75.9% |  | 30.3% | 363 nM | 
7 | Cn1cc(-c2cccnc2[C@@H](NC(=O)c2ccc3c(c2)CN([C@H]2CCC(=O)NC2=O)C3=O)C2CCC2)cn1 (single isomer, unassigned) [Compound 84, N—((*S)-cyclobutyl(3-(1-methyl-1H-pyrazol-4-yl)pyridin-2-yl)methyl)-2-((S)-2,6-dioxopiperidin-3-yl)-1-oxoisoindoline-5-carboxamide] | 72.4% | 74.1 nM | 15.2% | 24 nM | 
8 | O=C1CCC(N2Cc3cc(C(=O)N[C@@H](c4ccc(F)cc4F)C4CCC4)ccc3C2=O)C(=O)N1 (stereo in doubt) [Compound 42, N-((*R)-cyclobutyl(2,4-difluorophenyl)methyl)-2-(2,6-dioxopiperidin-3-yl)-1-oxoisoindoline-5-carboxamide] | 57.7% | 1150 nM | 40.8% | 420 nM | 
9 | O=C1CCC(N2Cc3cc(C(=O)N[C@H](c4ccc(F)cn4)C4CCC4)ccc3C2=O)C(=O)N1 (stereo in doubt) [Compound 78, N-((*S)-cyclobutyl(5-fluoropyridin-2-yl)methyl)-2-(2,6-dioxopiperidin-3-yl)-1-oxoisoindoline-5-carboxamide] | 67.2% | 198 nM | 14.4% | 176 nM | 
10 | O=C1CCC(N2Cc3cc(C(=O)N[C@H](c4ncccc4-c4ccc(F)cc4)C4CCC4)ccc3C2=O)C(=O)N1 (stereo in doubt) [Compound 83, N—((*S)-cyclobutyl(3-(4-fluorophenyl)pyridin-2-yl)methyl)-2-(2,6-dioxopiperidin-3-yl)-1-oxoisoindoline-5-carboxamide] | 66% | 115 nM | 14.4% | 27 nM | 
11 | O=C1CC[C@@H](N2Cc3cc(C(=O)N[C@H](c4ccc(F)cc4)C4CCC4)ccc3C2=O)C(=O)N1 (relative stereo) [Compound 8, N—((*S)-cyclobutyl(4-fluorophenyl)methyl)-2-((R)-2,6-dioxopiperidin-3-yl)-1-oxoisoindoline-5-carboxamide] |  | 160 nM |  |  | HiBiT CK1α: Dmax (HiBiT tagged CK1α): 72.9%; HiBiT GSPT1: Dmax (HiBiT tagged GSPT1): 23.4%; IC50 (MV4-11 cells): 205 nM
12 | O=C1CCC(N2Cc3cc(C(=O)N[C@H](c4ccc(F)cc4)C4CC(F)(F)C4)ccc3C2=O)C(=O)N1 (single isomer, unassigned) [Compound 6] | 60.9% |  | 30.1% | 691 nM | 
13 | O=C1CCC(N2Cc3cc(C(=O)N[C@H](c4ccc(Cl)cn4)C4CCC4)ccc3C2=O)C(=O)N1 (stereo in doubt) [Compound 76, N—((*S)-(5-chloropyridin-2-yl)(cyclobutyl)methyl)-2-(2,6-dioxopiperidin-3-yl)-1-oxoisoindoline-5-carboxamide] |  | 219 nM |  |  | HiBiT CK1α: Dmax (HiBiT tagged CK1α): 64.4%; HiBiT GSPT1: Dmax (HiBiT tagged GSPT1): 23.5%; IC50 (MV4-11 cells): 71 nM
14 | O=C1CCC(N2Cc3cc(C(=O)N[C@H](c4ncc(Cl)cc4F)C4(F)CCC4)ccc3C2=O)C(=O)N1 (stereo in doubt) [Compound 89, N-((*R)-(5-chloro-3-fluoropyridin-2-yl)(1-fluorocyclobutyl)methyl)-2-(2,6-dioxopiperidin-3-yl)-1-oxoisoindoline-5-carboxamide] | 69% | 148 nM | 17.3% | 198 nM | 
15 | O=C1CCC(N2Cc3cc(C(=O)N[C@H](c4ccc(F)cc4F)C4CCC4)ccc3C2=O)C(=O)N1 (stereo in doubt) [Compound 41, N-((*S)-cyclobutyl(2,4-difluorophenyl)methyl)-2-(2,6-dioxopiperidin-3-yl)-1-oxoisoindoline-5-carboxamide] | 70.5% | 82.4 nM | 24.9% | 115 nM | F ([1]; 10 mg/kg, PO): 76.8%; C0 ([1]; 2 mg/kg, IV): 1860 ng/mL; clearance ([1]; 2 mg/kg, IV): 23 mL/min/kg; half-life ([1]; 2 mg/kg, IV): 170 min; Vd ([1]; 2 mg/kg, IV): 3.2 L/kg; AUC(0-inf) ([1]; 10 mg/kg, PO): 5870 ng·h/mL; Cmax ([1]; 10 mg/kg, PO): 1570 ng/mL; Tmax ([1]; 10 mg/kg, PO): 49.8 min; half-life ([1]; 10 mg/kg, PO): 163 min
16 | O=C1CCC(N2Cc3cc(C(=O)N[C@H](c4ccc(Cl)cc4)C4CCC4)ccc3C2=O)C(=O)N1 (stereo in doubt) [Compound 36, N-((*S)-(4-chlorophenyl)(cyclobutyl)methyl)-2-(2,6-dioxopiperidin-3-yl)-1-oxoisoindoline-5-carboxamide] | 65.8% | 66.7 nM | 24.6% | 128 nM | 
